The target of this experiment is T1, ATM protein immunoprecipitated from HeLa cell nuclear extract (Homo sapiens, UniProt Q13315).
T1 construct: ATM protein was immunoprecipitated from HeLa cell nuclear extract; endogenous in cells; host or cells: HeLa cell nuclear extract (immunoprecipitated with rabbit polyclonal anti-ATM antiserum)
Kind of experiment: In vitro ATM inhibition assay (phosphorylation of GSTp53N66 on serine 15, chemiluminescent detection). Further: tested normally from 100 µM down to 0.1 nM. The class given is biochemical. The conditions noted are these: read-out: IC50 values (the concentration at which 50% of the enzyme activity is inhibited), ATM inhibition. The method, then: In order to assess the inhibitory action of the compounds against ATM in vitro, the following assay was used to determine IC50 values. ATM protein was immunoprecipitated from HeLa cell nuclear extract using rabbit polyclonal anti-sera raised to the C-terminal ˜500 amino-acid residues of the human ATM protein. […] 10 μl of immunoprecipitated ATM in Buffer C (50 mM Hepes, pH 7.4, 6 mM MgCl2, 150 mM NaCl, 0.1 mM sodium orthovanadate, 4 mM MnCl2, 0.1 mM dithiothreitol, 10% glycerol) was added to 32.5 μl of buffer C containing 1 μg of the ATM substrate GSTp53N66 in a V-bottomed 96 well polypropylene plate. The GSTp53N66 substrate is the amino terminal 66 amino acid residues of human wild type p53 fused to glutathione S-transferase. […] Varying concentrations of inhibitor were then added. […] After 10 minutes of incubation at 37° C., the reactions were initiated by the addition of 5 μl of 500 μM Na-ATP. After 1 hour with shaking at 37° C., 150 μl of phosphate buffered saline (PBS) was added to the reaction and the plate centrifuged at 1500 rpm for 10 minutes. 5 μl of the reaction was then transferred to a 96 well opaque white plate containing 45 μl of PBS to allow the GSTp53N66 substrate to bind to the plate wells. The plate was covered and incubated at room temperature for 1 hour with shaking before discarding the contents. The plate wells were washed twice by the addition of PBS prior to the addition of 3% (w/v) bovine serum albumin (BSA) in PBS. The plate was incubated at room temperature for 1 hour with shaking before discarding the contents and washing twice with PBS. To the wells, 50 μl of a 1:10,000 dilution of primary phosphoserine-15 antibody (Cell Signaling Technology, #9284L) in 3% BSA/PBS was added to detect the phosphorylation event on the serine 15 residue of p53 elicited by the ATM kinase. […] The wells were then washed four times with PBS before the addition of chemiluminescence reagent (NEN Renaissance, NEL105). The plate was then shaken briefly, covered with a transparent plate seal and transferred to a TopCount NXT for chemiluminescent counting. Counts per second, following a one second counting time, were recorded for each reaction.
The enzyme activity for each compound is then calculated using the following equation:
[formula] Results In vitro ATM assays
Compounds were assayed for ATM inhibition activity using the method described above. […] These are determined over a range of different concentrations, normally from 100 μM down to 0.1 nM. Such IC50 values are used as comparative values to identify increased compound potencies.

Bounds are passed on as bounds.

T1 sequence (Q13315 whole entry): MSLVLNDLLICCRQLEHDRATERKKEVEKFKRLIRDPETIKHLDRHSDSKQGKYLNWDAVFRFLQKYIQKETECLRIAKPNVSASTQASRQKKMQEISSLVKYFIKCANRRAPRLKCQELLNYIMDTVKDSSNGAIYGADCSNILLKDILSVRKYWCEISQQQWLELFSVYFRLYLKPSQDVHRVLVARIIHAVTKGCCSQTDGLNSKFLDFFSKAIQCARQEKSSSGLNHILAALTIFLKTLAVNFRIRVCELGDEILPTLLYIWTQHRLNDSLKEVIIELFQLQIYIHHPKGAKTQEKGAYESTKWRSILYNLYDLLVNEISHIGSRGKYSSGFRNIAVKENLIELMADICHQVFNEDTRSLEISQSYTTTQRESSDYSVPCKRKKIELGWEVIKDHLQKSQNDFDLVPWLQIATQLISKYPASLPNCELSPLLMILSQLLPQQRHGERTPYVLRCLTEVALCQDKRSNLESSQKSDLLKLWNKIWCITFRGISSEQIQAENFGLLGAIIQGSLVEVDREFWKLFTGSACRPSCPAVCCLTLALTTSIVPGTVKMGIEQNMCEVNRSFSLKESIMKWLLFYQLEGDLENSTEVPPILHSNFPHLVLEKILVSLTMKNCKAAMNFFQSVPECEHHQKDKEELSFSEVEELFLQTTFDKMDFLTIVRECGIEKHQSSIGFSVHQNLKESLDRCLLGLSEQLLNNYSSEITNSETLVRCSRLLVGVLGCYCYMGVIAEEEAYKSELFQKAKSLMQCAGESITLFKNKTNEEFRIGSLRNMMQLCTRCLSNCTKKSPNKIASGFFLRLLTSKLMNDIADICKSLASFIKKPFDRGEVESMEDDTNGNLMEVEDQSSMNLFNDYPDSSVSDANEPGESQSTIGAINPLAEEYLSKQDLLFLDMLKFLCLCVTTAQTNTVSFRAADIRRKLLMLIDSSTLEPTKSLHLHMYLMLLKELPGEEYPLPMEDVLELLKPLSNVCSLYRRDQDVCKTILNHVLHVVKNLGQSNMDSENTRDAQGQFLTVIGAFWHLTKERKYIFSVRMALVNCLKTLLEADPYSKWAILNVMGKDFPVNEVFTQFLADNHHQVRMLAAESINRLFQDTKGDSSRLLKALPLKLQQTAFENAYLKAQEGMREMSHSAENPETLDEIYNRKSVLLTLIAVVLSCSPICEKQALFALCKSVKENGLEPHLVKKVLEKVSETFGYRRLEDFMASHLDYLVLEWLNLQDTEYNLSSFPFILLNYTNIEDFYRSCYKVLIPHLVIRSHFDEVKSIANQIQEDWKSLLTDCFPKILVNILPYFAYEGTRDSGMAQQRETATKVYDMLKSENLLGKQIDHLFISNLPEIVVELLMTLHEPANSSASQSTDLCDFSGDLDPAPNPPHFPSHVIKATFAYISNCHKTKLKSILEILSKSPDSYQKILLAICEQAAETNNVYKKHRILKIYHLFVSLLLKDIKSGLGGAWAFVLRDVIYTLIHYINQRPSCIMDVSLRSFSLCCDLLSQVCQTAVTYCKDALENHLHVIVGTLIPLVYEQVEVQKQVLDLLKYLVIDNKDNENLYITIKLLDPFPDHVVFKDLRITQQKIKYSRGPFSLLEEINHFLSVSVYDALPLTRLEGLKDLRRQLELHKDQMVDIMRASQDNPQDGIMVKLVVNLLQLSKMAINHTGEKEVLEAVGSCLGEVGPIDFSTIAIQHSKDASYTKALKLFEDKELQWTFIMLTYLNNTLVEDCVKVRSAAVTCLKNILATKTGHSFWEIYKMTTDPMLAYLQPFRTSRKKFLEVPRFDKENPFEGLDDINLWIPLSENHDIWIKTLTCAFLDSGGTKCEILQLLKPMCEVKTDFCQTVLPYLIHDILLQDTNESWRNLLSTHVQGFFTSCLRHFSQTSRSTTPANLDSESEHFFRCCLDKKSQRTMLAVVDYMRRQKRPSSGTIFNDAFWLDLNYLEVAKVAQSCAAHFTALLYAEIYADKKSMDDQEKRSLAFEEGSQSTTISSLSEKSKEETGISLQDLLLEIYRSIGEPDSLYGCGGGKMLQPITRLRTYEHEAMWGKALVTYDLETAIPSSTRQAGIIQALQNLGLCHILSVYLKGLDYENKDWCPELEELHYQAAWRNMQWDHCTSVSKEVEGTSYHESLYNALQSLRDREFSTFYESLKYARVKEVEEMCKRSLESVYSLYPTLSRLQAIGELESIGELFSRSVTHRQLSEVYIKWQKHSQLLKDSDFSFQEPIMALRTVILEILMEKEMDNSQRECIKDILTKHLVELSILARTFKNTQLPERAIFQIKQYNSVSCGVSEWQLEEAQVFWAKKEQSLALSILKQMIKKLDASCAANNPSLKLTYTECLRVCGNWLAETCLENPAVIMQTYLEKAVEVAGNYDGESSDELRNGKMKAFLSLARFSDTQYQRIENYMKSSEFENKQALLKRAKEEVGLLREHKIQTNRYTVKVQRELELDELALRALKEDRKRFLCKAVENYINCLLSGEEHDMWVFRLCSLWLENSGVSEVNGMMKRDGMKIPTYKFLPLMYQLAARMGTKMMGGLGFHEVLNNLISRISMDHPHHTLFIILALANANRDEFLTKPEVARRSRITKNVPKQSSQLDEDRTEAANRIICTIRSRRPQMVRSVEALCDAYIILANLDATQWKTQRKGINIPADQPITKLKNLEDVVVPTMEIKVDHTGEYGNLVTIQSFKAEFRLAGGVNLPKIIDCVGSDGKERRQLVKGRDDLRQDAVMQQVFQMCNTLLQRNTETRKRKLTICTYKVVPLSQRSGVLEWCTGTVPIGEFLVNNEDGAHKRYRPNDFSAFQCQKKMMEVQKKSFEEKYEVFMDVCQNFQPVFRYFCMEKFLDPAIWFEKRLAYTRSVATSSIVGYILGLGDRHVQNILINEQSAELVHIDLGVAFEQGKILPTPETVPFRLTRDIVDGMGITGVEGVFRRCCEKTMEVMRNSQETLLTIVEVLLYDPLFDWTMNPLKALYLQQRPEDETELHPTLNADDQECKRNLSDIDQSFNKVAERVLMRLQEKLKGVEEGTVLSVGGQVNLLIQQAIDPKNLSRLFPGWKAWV

With `CN(C)Cc1ccc(CSCCNCCOc2ccc(-c3cc(=O)cc(N4CCOCC4)o3)c3c2Sc2ccccc2S3)o1` [Compound 170], the IC50 was less than 200 nM.

For `CCNCCCOc1ccc(-c2cc(=O)cc(N3CCOCC3)o2)c2c1Sc1ccccc1S2` [Compound 172], the IC50 is less than 200 nM. As for `C[C@@H]1COC[C@H](C)N1CCCOc1ccc(-c2cc(=O)cc(N3CCOCC3)o2)c2c1Sc1ccccc1S2` [Compound 181], the figure is less than 200 nM; as for `O=c1cc(-c2ccc(OCCCNC3CCC3)c3c2Sc2ccccc2S3)oc(N2CCOCC2)c1` [Compound 182], less than 200 nM; as for `CC(C)N(CCNCCCOc1ccc(-c2cc(=O)cc(N3CCOCC3)o2)c2c1Sc1ccccc1S2)C(C)C` [Compound 200], less than 200 nM. `O=c1cc(-c2cccc3c2Sc2ccccc2N3CCCNCC2CCCO2)oc(N2CCOCC2)c1` (stereo not drawn) [Compound 240]: the IC50 is less than 200 nM. In the case of `CC(C)CNCCCN1c2ccccc2Sc2c(-c3cc(=O)cc(N4CCOCC4)o3)cccc21` [Compound 242], the IC50 is less than 200 nM. As for `CCN(CC)CCCN1c2ccccc2Sc2c(-c3cc(=O)cc(N4CCOCC4)o3)cccc21` [Compound 244], the figure is less than 200 nM; as for `CCCCNCCCN1c2ccccc2Sc2c(-c3cc(=O)cc(N4CCOCC4)o3)cccc21` [Compound 245], less than 200 nM; as for `O=c1cc(-c2cccc3c2Sc2ccccc2N3CCCNC2CCCCC2)oc(N2CCOCC2)c1` [Compound 251], less than 200 nM. Consider `O=c1cc(-c2cccc3c2Sc2ccccc2N3CCCNCC2CCCCC2)oc(N2CCOCC2)c1` [Compound 253], for which the IC50 is less than 200 nM. To `O=c1cc(-c2cccc3c2Sc2ccccc2N3CCCNC2CCCC2)oc(N2CCOCC2)c1` [Compound 254] belongs less than 200 nM; to `CC1CN(CCCN2c3ccccc3Sc3c(-c4cc(=O)cc(N5CCOCC5)o4)cccc32)CC(C)O1` (stereo not drawn) [Compound 257], less than 200 nM. To `O=c1cc(-c2cccc3c2Sc2ccccc2N3CCCN2CCCCCC2)oc(N2CCOCC2)c1` [Compound 260] belongs less than 200 nM; to `O=c1cc(-c2cccc3c2Sc2ccccc2N3CCCNN2CCCCCC2)oc(N2CCOCC2)c1` [Compound 261], less than 200 nM; to `O=c1cc(-c2cccc3c2Sc2ccccc2N3CCCNCCN2CCCC2)oc(N2CCOCC2)c1` [Compound 264], less than 200 nM. To `O=c1cc(-c2cccc3c2Sc2ccccc2N3CCCNCc2ccccn2)oc(N2CCOCC2)c1` [Compound 266] belongs less than 200 nM; to `O=c1cc(-c2cccc3c2Sc2ccccc2N3CCCNCc2cccnc2)oc(N2CCOCC2)c1` [Compound 267], less than 200 nM. As to `CN1CCN(CCCNCCCN2c3ccccc3Sc3c(-c4cc(=O)cc(N5CCOCC5)o4)cccc32)CC1` [Compound 270], the IC50 was less than 200 nM.

`O=c1cc(-c2cccc3c2Sc2ccccc2N3CCCNCCc2cnc[nH]2)oc(N2CCOCC2)c1` [Compound 271]: the IC50 was less than 200 nM. Turning to `O=c1cc(-c2cccc3c2Sc2ccccc2N3CCCNCCN2CCOCC2)oc(N2CCOCC2)c1` [Compound 272], the IC50 is less than 200 nM. `O=c1cc(-c2cccc3c2Sc2ccccc2N3CCCNCCN2CCN(Cc3ccccc3)CC2)oc(N2CCOCC2)c1` [Compound 274]: the IC50 is less than 200 nM.

Take `CCN(CC)CCCNCCCN1c2ccccc2Sc2c(-c3cc(=O)cc(N4CCOCC4)o3)cccc21` [Compound 277]: the IC50 is less than 200 nM. In the case of `CN(C)CCN(CCCN1c2ccccc2Sc2c(-c3cc(=O)cc(N4CCOCC4)o3)cccc21)Cc1ccccc1` [Compound 281], the IC50 was less than 200 nM.

Turning to `CN(C)CCNCCCN1c2ccccc2Sc2c(-c3cc(=O)cc(N4CCOCC4)o3)cccc21` [Compound 282], the IC50 was less than 200 nM. To `CN(C)CCCNCCCN1c2ccccc2Sc2c(-c3cc(=O)cc(N4CCOCC4)o3)cccc21` [Compound 284] belongs less than 200 nM.

In the case of `COCCCNCCCN1c2ccccc2Sc2c(-c3cc(=O)cc(N4CCOCC4)o3)cccc21` [Compound 285], the IC50 is less than 200 nM.
